In patent publication US20230085307A1, “PYRIDAZINONE COMPOUND AND HERBICIDE” (NISSAN CHEMICAL CORPORATION, priority 2019, published 2023):

Columns and labels:
[1] = system: oval-leafed pondweed; assay: Test Example 1: herbicidal activity, application before weed generation under submerged conditions (Table 16, symbol C); type: in vivo, oval-leafed pondweed (Monochoria vaginalis); details: 320 g/ha applied herbicide
Method in brief: (§1)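 Alluvial soil was flooded to 4 cm depth, weed seeds were sown mixed and 2.5-leaf rice seedlings were transplanted. On sowing day, the compound's emulsion, diluted in water to a set dose, was applied to the water surface. Plants grew at 25–30 °C and were scored 0–5 after three weeks.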

[2] = system: blackgrass; assay: Test Example 5: herbicidal effect by foliage application, plastic box (Table 20, symbol J); type: in vivo, blackgrass (Alopecurus myosuroides); details: foliage application, 320 g/ha; for herbicidal effect grade, J: blackgrass: three weeks after application
Method in brief: (§2)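 Sow seeds spot-wise in sterilized diluvial soil; cover with ~1.5 cm soil. Grow 14 days in greenhouse, 25° C. to 30° C. Spray foliage with emulsion diluted to predetermined amount. Rate effect after 3 weeks.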

[3] = system: barnyard grass; assay: Test Example 5: herbicidal effect by foliage application, plastic box (Table 20, symbol H); type: in vivo, barnyard grass (Echinochloa crus-galli); details: foliage application, 320 g/ha; for herbicidal effect grade, H: barnyard grass: three weeks after application
Method in brief: as §2

[4] = system: redroot pigweed; assay: Test Example 5: herbicidal effect by foliage application, plastic box (Table 20, symbol N); type: in vivo, redroot pigweed (Amaranthus retroflexus); details: foliage application, 320 g/ha; for herbicidal effect grade, N: redroot pigweed: three weeks after application
Method in brief: as §2

[5] = system: chickweed; assay: Test Example 4: herbicidal effect by soil treatment (Table 19, symbol P); type: in vivo, common chickweed (Stellaria media)
Method in brief: (§3)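 Soil-surface application: an emulsion agent diluted with water to the predetermined dose is sprayed uniformly over seeds lying under roughly 1.5 cm of sterilized diluvial soil. Boxes stay in a greenhouse at 25° C. to 30° C. Three weeks later, each species is graded on previously defined criteria.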

[6] = system: Japanese bulrush; assay: Test Example 1: herbicidal activity, application before weed generation under submerged conditions (Table 16, symbol B); type: in vivo, Japanese bulrush (Schoenoplectus juncoides); details: 320 g/ha applied herbicide
Method in brief: as §1

[7] = system: lambsquarters; assay: Test Example 4: herbicidal effect by soil treatment (Table 19, symbol O); type: in vivo, lambsquarters (Chenopodium album)
Method in brief: as §3

[8] = system: chickweed; assay: Test Example 5: herbicidal effect by foliage application, plastic box (Table 20, symbol P); type: in vivo, common chickweed (Stellaria media); details: foliage application, 320 g/ha; for herbicidal effect grade, P: chickweed: three weeks after application
Method in brief: as §2

[9] = system: windgrass; assay: Test Example 4: herbicidal effect by soil treatment (Table 19, symbol L); type: in vivo, windgrass (Apera spica-venti)
Method in brief: as §3

[10] = system: rice flat sedge; assay: Test Example 3: herbicidal effect by foliage application, Wagner pot (Table 18, symbol E); type: in vivo, rice flat sedge (Cyperus iria); details: for herbicidal effect on E (rice flat sedge), rating 0-5: 320 g/ha
Method in brief: (§4)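 Plants were sown in alluvial soil held under 0.1–0.5 cm standing water and grown 14 days in a greenhouse at 25–30 °C. An emulsifiable formulation, water-diluted to the set dose, was then sprayed onto the foliage, and effects were scored three weeks later using previously defined criteria.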

[11] = system: velvetleaf; assay: Test Example 5: herbicidal effect by foliage application, plastic box (Table 20, symbol M); type: in vivo, velvetleaf (Abutilon theophrasti); details: foliage application, 320 g/ha; for herbicidal effect grade, M: velvetleaf: three weeks after application
Method in brief: as §2

[12] = system: late watergrass; assay: Test Example 1: herbicidal activity, application before weed generation under submerged conditions (Table 16, symbol A); type: in vivo, late watergrass (Echinochloa oryzicola); details: 320 g/ha applied herbicide
Method in brief: as §1

[13] = system: Italian ryegrass; assay: Test Example 4: herbicidal effect by soil treatment (Table 19, symbol K); type: in vivo, Italian ryegrass (Lolium multiflorum)
Method in brief: as §3

[14] = system: southern crabgrass; assay: Test Example 5: herbicidal effect by foliage application, plastic box (Table 20, symbol F); type: in vivo, southern crabgrass (Digitaria ciliaris); details: foliage application, 320 g/ha; for herbicidal effect grade, F: southern crabgrass: three weeks after application
Method in brief: as §2

[15] = system: windgrass; assay: Test Example 5: herbicidal effect by foliage application, plastic box (Table 20, symbol L); type: in vivo, windgrass (Apera spica-venti); details: foliage application, 320 g/ha; for herbicidal effect grade, L: windgrass: three weeks after application
Method in brief: as §2

[16] = system: Chinese sprangletop; assay: Test Example 3: herbicidal effect by foliage application, Wagner pot (Table 18, symbol D); type: in vivo, chinese sprangletop (Leptochloa chinensis); details: for herbicidal effect on D (Chinese sprangletop), rating 0-5: 320 g/ha
Method in brief: as §4

[17] = system: barnyard grass; assay: Test Example 3: herbicidal effect by foliage application, Wagner pot (Table 18, symbol H); type: in vivo, barnyard grass (Echinochloa crus-galli); details: for herbicidal effect on H (barnyard grass), rating 0-5: 320 g/ha
Method in brief: as §4

[18] = system: wild oat; assay: Test Example 5: herbicidal effect by foliage application, plastic box (Table 20, symbol I); type: in vivo, wild oat (Avena fatua); details: foliage application, 320 g/ha; for herbicidal effect grade, I: wild oat: three weeks after application
Method in brief: as §2

[19] = system: persian speedwell; assay: Test Example 4: herbicidal effect by soil treatment (Table 19, symbol R); type: in vivo, Persian speedwell (Veronica persica)
Method in brief: as §3

[20] = amount of applied herbicide 320 g/ha
[21] = evaluated three weeks after application

Compound	Herbicidal effect on C: oval-leafed pondweed (grade 0-5) [1]	herbicidal effect grade, J: blackgrass [2]	herbicidal effect grade, H: barnyard grass [3]	herbicidal effect grade, N: redroot pigweed [4]	herbicidal effect rating, P: chickweed [5, 20]	Herbicidal effect on B: Japanese bulrush (grade 0-5) [6]	herbicidal effect rating, O: lambsquarters [7, 20]	herbicidal effect grade, P: chickweed [8]	herbicidal effect rating, L: windgrass [9, 20]	herbicidal effect on E (rice flat sedge), rating 0-5 [10]	herbicidal effect grade, M: velvetleaf [11]	Herbicidal effect on A: late watergrass (grade 0-5) [12]	herbicidal effect rating, K: Italian ryegrass [13, 20]	herbicidal effect grade, F: southern crabgrass [14]	herbicidal effect grade, L: windgrass [15]	herbicidal effect on D (Chinese sprangletop), rating 0-5 [16]	herbicidal effect on H (barnyard grass), rating 0-5 [17]	herbicidal effect grade, I: wild oat [18]	herbicidal effect rating, R: persian speedwell [19, 20]	other results
CCCC(=O)Oc1c(C)nn(C)c(=O)c1-c1c(-c2ccc(OCC)cc2)sc2ccccc12 [1-014]	5 (Herbicidal rate of 90% or more (almost completely withered))	0 (Herbicidal rate of 5% or less (almost no effect))	4 (Herbicidal rate of 70% or more and less than 90%)	0 (Herbicidal rate of 5% or less (almost no effect))	4 (Herbicidal rate of 70% or more and less than 90%)	5 (Herbicidal rate of 90% or more (almost completely withered))	2 (Herbicidal rate of 20% or more and less than 40%)	5 (Herbicidal rate of 90% or more (almost completely withered))	0 (Herbicidal rate of 5% or less (almost no effect))	5 (Herbicidal rate of 90% or more (almost completely withered))	4 (Herbicidal rate of 70% or more and less than 90%)	5 (Herbicidal rate of 90% or more (almost completely withered))	0 (Herbicidal rate of 5% or less (almost no effect))	0 (Herbicidal rate of 5% or less (almost no effect))	0 (Herbicidal rate of 5% or less (almost no effect))	0 (Herbicidal rate of 5% or less (almost no effect))	4 (Herbicidal rate of 70% or more and less than 90%)	1 (Herbicidal rate of 5% or more and less than 20%)	5 (Herbicidal rate of 90% or more (almost completely withered))	–
CCCOc1ccccc1-c1sc2ccccc2c1-c1c(O)c(C)nn(C)c1=O [1-015]	3 (Herbicidal rate of 40% or more and less than 70%)	5 (Herbicidal rate of 90% or more (almost completely withered))	3 (Herbicidal rate of 40% or more and less than 70%)	3 (Herbicidal rate of 40% or more and less than 70%)	3 (Herbicidal rate of 40% or more and less than 70%)	3 (Herbicidal rate of 40% or more and less than 70%)	0 (Herbicidal rate of 5% or less (almost no effect))	5 (Herbicidal rate of 90% or more (almost completely withered))	5 (Herbicidal rate of 90% or more (almost completely withered))	5 (Herbicidal rate of 90% or more (almost completely withered))	5 (Herbicidal rate of 90% or more (almost completely withered))	3 (Herbicidal rate of 40% or more and less than 70%)	0 (Herbicidal rate of 5% or less (almost no effect))	3 (Herbicidal rate of 40% or more and less than 70%)	5 (Herbicidal rate of 90% or more (almost completely withered))	3 (Herbicidal rate of 40% or more and less than 70%)	5 (Herbicidal rate of 90% or more (almost completely withered))	3 (Herbicidal rate of 40% or more and less than 70%)	4 (Herbicidal rate of 70% or more and less than 90%)	–
Cc1nn(C)c(=O)c(-c2c(-c3ccc(OCCF)cc3)sc3ccc(F)cc23)c1O [2-047]	2 (Herbicidal rate of 20% or more and less than 40%)	–	–	–	–	3 (Herbicidal rate of 40% or more and less than 70%)	–	–	–	5 (Herbicidal rate of 90% or more (almost completely withered))	–	3 (Herbicidal rate of 40% or more and less than 70%)	–	–	–	4 (Herbicidal rate of 70% or more and less than 90%)	5 (Herbicidal rate of 90% or more (almost completely withered))	–	–	effect on blackgrass (J) ([2]; 3 weeks after application): 4 (Herbicidal rate of 70% or more and less than 90%); effect on barnyard grass (H) ([3]; 3 weeks after application): 5 (Herbicidal rate of 90% or more (almost completely withered)); herbicidal effect rating, P: chickweed ([5]; 320 g/ha): 4 (Herbicidal rate of 70% or more and less than 90%); herbicidal effect rating, O: lambsquarters ([7]; 320 g/ha): 5 (Herbicidal rate of 90% or more (almost completely withered)); herbicidal effect rating, L: windgrass ([9]; 320 g/ha): 0 (Herbicidal rate of 5% or less (almost no effect)); effect on velvetleaf (M) ([11]; 3 weeks after application): 5 (Herbicidal rate of 90% or more (almost completely withered)); herbicidal effect rating, K: Italian ryegrass ([13]; 320 g/ha): 1 (Herbicidal rate of 5% or more and less than 20%); effect on southern crabgrass (F) ([14]; 3 weeks after application): 5 (Herbicidal rate of 90% or more (almost completely withered)); effect on windgrass (L) ([15]; 3 weeks after application): 4 (Herbicidal rate of 70% or more and less than 90%); effect on wild oat (I) ([18]; 3 weeks after application): 3 (Herbicidal rate of 40% or more and less than 70%); herbicidal effect rating, R: persian speedwell ([19]; 320 g/ha): 5 (Herbicidal rate of 90% or more (almost completely withered))
CCCC(=O)Oc1c(C)nn(C)c(=O)c1-c1c(-c2ccc(SCC)cc2)sc2ccc(F)cc12 [2-245]	3 (Herbicidal rate of 40% or more and less than 70%)	–	–	–	–	3 (Herbicidal rate of 40% or more and less than 70%)	–	–	–	–	–	4 (Herbicidal rate of 70% or more and less than 90%)	–	–	–	–	–	–	–	herbicidal effect on J: blackgrass (criteria 0-5) [2, 21]: 4 (Herbicidal rate of 70% or more and less than 90%); herbicidal effect on H: barnyard grass (criteria 0-5) [3, 21]: 5 (Herbicidal rate of 90% or more (almost completely withered)); herbicidal effect on N: redroot pigweed (criteria 0-5) [4, 21]: 5 (Herbicidal rate of 90% or more (almost completely withered)); herbicidal effect on P: chickweed [5, 20]: 4 (Herbicidal rate of 70% or more and less than 90%); herbicidal effect on O: lambsquarters [7, 20]: 4 (Herbicidal rate of 70% or more and less than 90%); herbicidal effect on P: chickweed (criteria 0-5) [8, 21]: 5 (Herbicidal rate of 90% or more (almost completely withered)); herbicidal effect on L: windgrass [9, 20]: 3 (Herbicidal rate of 40% or more and less than 70%); herbicidal effect on E: rice flat sedge [10, 20]: 4 (Herbicidal rate of 70% or more and less than 90%); herbicidal effect on M: velvetleaf (criteria 0-5) [11, 21]: 5 (Herbicidal rate of 90% or more (almost completely withered)); herbicidal effect on K: Italian ryegrass [13, 20]: 4 (Herbicidal rate of 70% or more and less than 90%); herbicidal effect on F: southern crabgrass (criteria 0-5) [14, 21]: 5 (Herbicidal rate of 90% or more (almost completely withered)); herbicidal effect on D: Chinese sprangletop [16, 20]: 4 (Herbicidal rate of 70% or more and less than 90%); herbicidal effect on H: barnyard grass [17, 20]: 5 (Herbicidal rate of 90% or more (almost completely withered)); herbicidal effect on I: wild oat (criteria 0-5) [18, 21]: 5 (Herbicidal rate of 90% or more (almost completely withered)); herbicidal effect on R: persian speedwell [19, 20]: 5 (Herbicidal rate of 90% or more (almost completely withered))
